A word on the Ki: it is a dissociation constant, usually derived from enzyme kinetics or from competition with a known ligand.

Among the data in patent EP1100482B1, “USE OF CALIX(N)ARENES IN THE MANUFACTURE OF A MEDICAMENT FOR TREATING FIBROTIC DISEASES” (CENTRE NATIONAL DE LA RECHERCHE SCIENTIFIQUE, priority 1998, dated 2000) are IC50 and Ki values, retold here.

Residue numbers refer to the chain shown, from its start.

Experiment [1] has as its target T1, lysyl-oxydase d'aorte bovine (Bos taurus, UniProt P33072).
T1 construct: De l'aorte bovine foetale broyée est rincée par du tampon NaCI 0,12M; from tissue; host or cells: fetal bovine aorta
T1 sequence (P33072 170-418): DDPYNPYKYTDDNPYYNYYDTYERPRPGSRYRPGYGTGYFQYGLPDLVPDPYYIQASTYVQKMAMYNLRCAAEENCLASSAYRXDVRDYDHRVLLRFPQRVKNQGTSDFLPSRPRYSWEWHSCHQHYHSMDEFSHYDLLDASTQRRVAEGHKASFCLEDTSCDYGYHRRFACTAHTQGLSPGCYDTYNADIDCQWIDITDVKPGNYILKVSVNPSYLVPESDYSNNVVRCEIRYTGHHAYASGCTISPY
Description: Lysyl oxidase activity assay (tritium release from 3H elastin). As to conditions: partially purified lysyl oxidase from fetal bovine aorta; 3H élastine substrate; 37°C; pH 8,0; read-out: concentration nécessaire pour inhiber 50% de l'activité de lysyl-oxydase. Format: biochemical. The protocol:
1. Purification partielle de la lysyl-oxydase d'aorte bovine
Ce protocole est inspiré de celui de (WILLIAMS et KAGAN, Anal. Biochem. 149, 430-437, 1985), et de (KAGAN et al. Biochem. J. 177, 203-214 (1979)), qui a été sensiblement modifié.
Toutes les étapes sont effectuées à 4 °C ou dans la glace.
De l'aorte bovine foetale broyée est rincée par du tampon NaCI 0,12M, NaPi 16 mM, pH 7,7 puis par du NaPi 16 mM, pH 7,7 (tampon PB). La lysyl oxydase est extraite du résidu par de l'urée 4 M (concentration finale dans le tampon PB). Le surnageant obtenu après centrifugation à 10.000 g pendant 30 minutes est dilué deux fois dans du PB puis incubé avec de la DEAE-cellulose pendant 3 heures. La résine est mise en colonne et rincée successivement par du tampon PB contenant de l'urée 2M , du tampon PB puis du tampon PB contenant du NaCI 0,4 M.
La lysyl oxydase est éluée à partir de la DEAE-cellulose par de l'urée 6M dans du tampon PB. Les fractions présentant une absorbance à 280 nm sont réunies et dialysées pendant une nuit contre du tampon PB en présence de gel de Bleu de Cibacron (Biorad). Le gel est ensuite mis en colonne, et après des rinçages successifs par du tampon PB, du tampon PB-NaCI 1M et à nouveau du tampon PB, la lysyl oxydase est éluée du gel de Bleu de Cibacron par de l'urée 6 M dans du tampon PB. […]

The target of experiment [2] is T2, lysyl oxydase (Homo sapiens, UniProt P28300).
T2 sequence (P28300 169-417): T1 sequence (P33072 170-418) with T10S, S29G, P49A, A64S, S80T, X84A, S142N, N188G, S224T, E231D
As to conditions: specific lysyl oxidase inhibitor described in the literature (Kagan, 1994); cited from earlier work.

As to `O=S(=O)(O)c1cc2c(O)c(c1)Cc1cc(S(=O)(=O)O)cc(c1O)Cc1cc(S(=O)(=O)O)cc(c1O)Cc1cc(S(=O)(=O)O)cc(c1O)Cc1cc(S(=O)(=O)O)cc(c1O)Cc1cc(S(=O)(=O)O)cc(c1O)C2`, the IC50 in experiment [1] came out at 1200 µM. For `N#CCCN` [βAPN, β amino-propionitrile], in experiment [2], the inhibition constant (Ki) was 6 µM.
